Assay results taken from patent publication US20050288347A1, “Certain triazole-based compounds, compositions, and uses thereof” (priority 2004, published 2005).
“Also recorded” adds a separate entry of the source.

What follows are compounds tested against protein kinase (assay: HTS ATP-utilizing enzyme assay, off-chip mobility-shift format (Caliper HTS 250)). Conditions: kinase(s) for which the compound exhibits protein kinase inhibitory activity; test compound 10 μM; active = greater than three-sigma from the mean activity of inactive compounds.
Type: biochemical, human
How it was run: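 Kinase reactions ran 2.5 h at 20 to 22 °C with test compound at 10 μM, in a HEPES pH 7.5 master buffer containing Triton X-100 and BSA. Peptide substrate and phosphorylated product separated by mobility shift; inhibition normalized to DMSO (0%) and EDTA (100%) controls, with three-sigma thresholds for hits.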

Row | SMILES | Kinase
1 | Cc1ccc(-n2c(SCC(=O)O)nnc2-c2ccc([N+](=O)[O-])cc2)cc1 [2-(5-(4-nitrophenyl)-4-p-tolyl-4H-1,2,4-triazol-3-ylthio)acetic acid] | DAPK1
2 | O=C(CSc1nnc(-c2ccc([N+](=O)[O-])cc2)[nH]1)c1ccccc1 [2-(5-(4-nitrophenyl)-4H-1,2,4-triazol-3-ylthio)-1-phenylethanone] | FLT-3; also recorded: GSK3-β; also recorded: AURORA-A
3 | O=C(O)CSc1nnc(-c2ccc([N+](=O)[O-])cc2)[nH]1 [2-(5-(4-nitrophenyl)-4H-1,2,4-triazol-3-ylthio)acetic acid] | GSK3-α; also recorded: GSK3-β; also recorded: DYRK2
4 | O=C(CSc1nnc(COc2ccc(Cl)cc2)[nH]1)c1ccccc1 [2-(5-((4-chlorophenoxy)methyl)-4H-1,2,4-triazol-3-ylthio)-1-phenylethanone] | GSK3-α; also recorded: FLT-3; also recorded: GSK3-β
5 | O=C(O)CSc1nnc(COc2ccc(Cl)cc2)[nH]1 [2-(5-((4-chlorophenoxy)methyl)-4H-1,2,4-triazol-3-ylthio)acetic acid] | GSK3-B β; also recorded: GSK3-α
6 | CCn1c(CNc2ccc(C)cc2)nnc1SCC#N [2-(5-((p-toluidino)methyl)-4-ethyl-4H-1,2,4-triazol-3-ylthio)acetonitrile] | PDGFRR-α and CDK1
7 | C=C(C)Cn1c(SCC(=O)O)nnc1-c1ccco1 [2-(5-(furan-2-yl)-4-(2-methylallyl)-4H-1,2,4-triazol-3-ylthio)acetic acid] | HCK and CHEK2
8 | Cn1c(SCC(=O)N2CCOCC2)nnc1-c1ccco1 [2-(5-(furan-2-yl)-4-methyl-4H-1,2,4-triazol-3-ylthio)-1-morpholinoethanone] | FYN
9 | O=C(CSc1nnc(-c2ccco2)n1-c1ccccc1)NCCc1ccccc1 [2-(5-(furan-2-yl)-4-phenyl-4H-1,2,4-triazol-3-ylthio)-N-phenethylacetamide] | AKT1
10 | N#CCSc1nnc(-c2ccco2)n1-c1ccccc1 [2-(5-(furan-2-yl)-4-phenyl-4H-1,2,4-triazol-3-ylthio)acetonitrile] | CHEK2
11 | CC(Sc1nnc(COc2ccccc2)n1-c1ccccc1)C(=O)O (centres unmarked) [2-(5-(phenoxymethyl)-4-phenyl-4H-1,2,4-triazol-3-ylthio)propanoic acid] | FYN
12 | Cc1ccc(-n2c(SCC(=O)O)nnc2-c2cccnc2)cc1 [2-(5-(pyridin-3-yl)-4-p-tolyl-4H-1,2,4-triazol-3-ylthio)acetic acid] | AURORA-A
13 | Cc1ccc(-n2c(SC(C)C(=O)O)nnc2-c2cccnc2)cc1 (centres unmarked) [2-(5-(pyridin-3-yl)-4-p-tolyl-4H-1,2,4-triazol-3-ylthio)propanoic acid] | AURORA-A
14 | Cc1ccc(-n2c(SCC#N)nnc2-c2ccncc2)cc1 [2-(5-(pyridin-4-yl)-4-p-tolyl-4H-1,2,4-triazol-3-ylthio)acetonitrile] | AURORA-A; also recorded: GSK3-β; also recorded: GSK3-α
15 | O=C(O)CSc1nnc(-c2cccs2)[nH]1 [2-(5-(thiophen-2-yl)-4H-1,2,4-triazol-3-ylthio)acetic acid] | DYRK2; also recorded: GSK3-β; also recorded: GSK3-α
16 | N#CCSc1nnc(-c2cccs2)[nH]1 [2-(5-(thiophen-2-yl)-4H-1,2,4-triazol-3-ylthio)acetonitrile] | DYRK2; also recorded: FLT-3; also recorded: AURORA-A
17 | Cn1c(Cc2ccccc2)nnc1SCC(N)=O [2-(5-benzyl-4-methyl-4H-1,2,4-triazol-3-ylthio)acetamide] | HCK

Row | SMILES | Kinase
18 | Cn1c(Cc2ccccc2)nnc1SCC#N [2-(5-benzyl-4-methyl-4H-1,2,4-triazol-3-ylthio)acetonitrile] | AURORA-A
19 | COc1ccccc1-n1c(SCC(=O)O)nnc1C1CCCCC1 [2-(5-cyclohexyl-4-(2-methoxyphenyl)-4H-1,2,4-triazol-3-ylthio)acetic acid] | GSK3-β
20 | CCn1c(SCC(=O)c2ccccc2)nnc1C1CCCCC1 [2-(5-cyclohexyl-4-ethyl-4H-1,2,4-triazol-3-ylthio)-1-phenylethanone] | SRC
21 | CCn1c(SCC#N)nnc1C1CCCCC1 [2-(5-cyclohexyl-4-ethyl-4H-1,2,4-triazol-3-ylthio)acetonitrile] | AURORA-A and MSK1
22 | N#CCSc1nnc(C2CCCCC2)n1-c1ccccc1 [2-(5-cyclohexyl-4-phenyl-4H-1,2,4-triazol-3-ylthio)acetonitrile] | CHEK2
23 | N#CCSc1nnc(C2CCCCC2)[nH]1 [2-(5-cyclohexyl-4H-1,2,4-triazol-3-ylthio)acetonitrile] | GSK3-α
24 | Cc1cccc(-c2nnc(SCC(=O)O)[nH]2)c1 [2-(5-m-tolyl-4H-1,2,4-triazol-3-ylthio)acetic acid] | GSK3-β; also recorded: DYRK2; also recorded: AURORA-A
25 | Cc1ccc(-n2c(S)nnc2-c2ccccc2O)cc1 [2-(5-mercapto-4-p-tolyl-4H-1,2,4-triazol-3-yl)phenol] | AURORA-A
26 | Oc1ccccc1-c1nnc(S)n1CCc1ccccc1 [2-(5-mercapto-4-phenethyl-4H-1,2,4-triazol-3-yl)phenol] | CDK2-cyclinE; also recorded: DAPK1
27 | Cc1nnc(SCC(N)=O)n1-c1ccccc1 [2-(5-methyl-4-phenyl-4H-1,2,4-triazol-3-ylthio)acetamide] | DYRK2
28 | Cc1nnc(SCC(=O)N2c3ccccc3Sc3ccccc32)[nH]1 [2-(5-methyl-4H-1,2,4-triazol-3-ylthio)-1-(10H-phenothiazin-10-yl)ethanone] | MAPKAPK-2 and CDK2-cyclinE and LCK
29 | Cc1nnc(SCC(=O)c2ccccc2)[nH]1 [2-(5-methyl-4H-1,2,4-triazol-3-ylthio)-1-phenylethanone] | GSK3-α; also recorded: GSK3-β; also recorded: DYRK2
30 | Cc1nnc(SCC(=O)O)[nH]1 [2-(5-methyl-4H-1,2,4-triazol-3-ylthio)acetic acid] | GSK3-β; also recorded: GSK3-α
31 | N#CCSc1nnc(-c2ccccc2)[nH]1 [2-(5-phenyl-4H-1,2,4-triazol-3-ylthio)acetonitrile] | DYRK2; also recorded: FLT-3; also recorded: AURORA-A
32 | CC(C)(C)c1nnc(SCC#N)[nH]1 [2-(5-tert-butyl-4H-1,2,4-triazol-3-ylthio)acetonitrile] | DYRK2; also recorded: GSK3-α
33 | O=C(CSc1nncn1-c1cccnc1)Nc1cccc(C(=O)O)c1 [3-(2-(4-(pyridin-3-yl)-4H-1,2,4-triazol-3-ylthio)acetamido)benzoic acid] | AURORA-A

Same assay, conditions: test compound 10 μM; active = activity greater than three-sigma from the mean of the predominately inactive population for that enzyme

Row | SMILES | protein kinase against which the compound exhibits inhibitory activity (Table 3)
34 | Cc1ccc(-n2c(SCCO)nnc2-c2ccncc2)cc1 [2-(5-(pyridin-4-yl)-4-p-tolyl-4H-1,2,4-triazol-3-ylthio)ethanol] | GSK3-β; also recorded: GSK3-α
35 | OCCSc1nnc(-c2cccs2)[nH]1 [2-(5-(thiophen-2-yl)-4H-1,2,4-triazol-3-ylthio)ethanol] | DYRK2; also recorded: FLT-3; also recorded: AURORA-A
36 | O=S(=O)(CCSc1nnc(Cc2ccccc2)n1-c1ccccc1)Nc1ccccc1 [2-(5-benzyl-4-phenyl-4H-1,2,4-triazol-3-ylthio)-N-phenylethanesulfonamide] | AKT2
37 | Cc1cccc(-c2nnc(SCC(N)=O)[nH]2)c1 [2-(5-m-tolyl-4H-1,2,4-triazol-3-ylthio)acetamide] | CHEK2; also recorded: AURORA-A; also recorded: FLT-3
38 | OCCSc1nnc(-c2ccccc2)[nH]1 [2-(5-phenyl-4H-1,2,4-triazol-3-ylthio)ethanol] | FLT-3; also recorded: AURORA-A; also recorded: DYRK2
39 | COc1ccc(-c2nnc(SCc3ccccc3C#N)[nH]2)cc1 [2-((5-(4-methoxyphenyl)-4H-1,2,4-triazol-3-ylthio)methyl)benzonitrile] | AURORA-A; also recorded: CHEK2; also recorded: GSK3-α
40 | N#Cc1ccccc1CSc1nnc(-c2cccnc2)[nH]1 [2-((5-(pyridin-3-yl)-4H-1,2,4-triazol-3-ylthio)methyl)benzonitrile] | AURORA-A; also recorded: GSK3-α; also recorded: CHEK2
41 | N#Cc1ccccc1CSc1nnc(-c2cccs2)[nH]1 [2-((5-(thiophen-2-yl)-4H-1,2,4-triazol-3-ylthio)methyl)benzonitrile] | AURORA-A; also recorded: CHEK2; also recorded: GSK3-α
42 | c1ccc2[nH]c(CSc3nnc(C4CCCC4)[nH]3)nc2c1 [2-((5-cyclopentyl-4H-1,2,4-triazol-3-ylthio)methyl)-1H-benzo[d]imidazole] | GSK3-α; also recorded: AURORA-A; also recorded: DYRK2
43 | Cc1nnc(SCc2nc3ccccc3[nH]2)[nH]1 [2-((5-methyl-4H-1,2,4-triazol-3-ylthio)methyl)-1H-benzo[d]imidazole] | DYRK2; also recorded: FLT-3; also recorded: AURORA-A
44 | Cc1nnc(SCc2ccccc2C#N)[nH]1 [2-((5-methyl-4H-1,2,4-triazol-3-ylthio)methyl)benzonitrile] | AURORA-A; also recorded: GSK3-β; also recorded: GSK3-α
45 | N#Cc1ccccc1CSc1nnc(-c2ccccc2)[nH]1 [2-((5-phenyl-4H-1,2,4-triazol-3-ylthio)methyl)benzonitrile] | AURORA-A; also recorded: CHEK2; also recorded: GSK3-β
46 | c1csc(-c2nnc(SCCN3CCCC3)[nH]2)c1 [3-(2-(pyrrolidin-1-yl)ethylthio)-5-(thiophen-2-yl)-4H-1,2,4-triazole] | GSK3-α; also recorded: GSK3-β; also recorded: DYRK2
47 | CCOCCSc1nnc(-c2ccc(OC(F)(F)F)cc2)[nH]1 [3-(2-ethoxyethylthio)-5-(4-(trifluoromethoxy)phenyl)-4H-1,2,4-triazole] | AURORA-A; also recorded: GSK3-β
